Data published in ChEMBL document CHEMBL4819020, “Discovery of [1,2,4]triazolo[1,5-a]pyrimidines derivatives as potential anticancer agents” (Eur J Med Chem, 2021).
pIC50: −log10 of the molar value.

Legend:
GES1 = test: Antiproliferative activity against human GES1 cells assessed as inhibition of cell proliferation measured after 72 hrs by MTT assay; format: cell-based; settings: GES1, 72 h
MGC-803 = test: Antiproliferative activity against human MGC-803 cells assessed as inhibition of cell proliferation measured after 72 hrs by MTT assay; format: functional, cell-based; settings: MGC-803, 72 h
MCF7 = test: Antiproliferative activity against human MCF7 cells assessed as inhibition of cell proliferation measured after 72 hrs by MTT assay; format: functional, cell-based; settings: MCF7, 72 h
PC-9 = test: Antiproliferative activity against human PC-9 cells assessed as inhibition of cell proliferation measured after 72 hrs by MTT assay; format: functional, cell-based; settings: PC-9, 72 h

Compound | pIC50 (GES1) | pIC50 (MGC-803) | pIC50 (MCF7) | pIC50 (PC-9)
Cc1cc(Nc2cc(-c3ccccc3)[nH]n2)n2nc(SCc3cccc(Br)c3)nc2n1 | < 4.30 | 5.32 | 5.29 | 5.05
Cc1cc(Nc2cc(-c3ccccc3)[nH]n2)n2nc(SCc3ccc([N+](=O)[O-])cc3)nc2n1 | 4.36 | 5.37 | 5.30 | 5.10
Cc1cc(Nc2cc(C(C)(C)C)[nH]n2)n2nc(SCc3ccc(Br)cc3)nc2n1 | < 4.30 | 5.25 | 5.14 | 4.91
Cc1cc(Nc2ccn(Cc3ccc(F)cc3)n2)n2nc(SCc3ccc(Br)cc3)nc2n1 | 4.39 | 5.51 | 5.37 | 4.71
Cc1cc(Nc2cc(-c3ccccc3)[nH]n2)n2nc(SCc3ccc(Br)cc3)nc2n1 | 4.41 | 5.95 | 5.57 | 5.32
Cc1cc(Nc2cc(-c3ccccc3)[nH]n2)n2nc(SCc3c(Cl)cccc3Cl)nc2n1 | 4.40 | 5.28 | 5.49 | 5.29
Cc1cc(Nc2ccn(Cc3ccc(C(F)(F)F)cc3)n2)n2nc(SCc3ccc(Br)cc3)nc2n1 | 4.52 | 5.59 | 5.64 | 5.25
Cc1ccc(CSc2nc3nc(C)cc(Nc4cc(-c5ccccc5)[nH]n4)n3n2)cc1 | 4.44 | 5.16 | 5.14 | 5.14
C=CCSc1nc2nc(C)cc(Nc3cc(-c4ccccc4)[nH]n3)n2n1 | < 4.30 | 4.76 | < 4.30 | < 4.30
Cc1cc(Nc2cc(-c3cccs3)[nH]n2)n2nc(SCc3ccc(Br)cc3)nc2n1 | 4.41 | 5.42 | 5.27 | 5.31
COc1ccc(CSc2nc3nc(C)cc(Nc4cc(-c5ccccc5)[nH]n4)n3n2)cc1 | 4.55 | 5.50 | 5.40 | 5.09
Cc1cc(Nc2cc(-c3ccccc3)[nH]n2)n2ncnc2n1 | < 4.30 | 4.66 | < 4.30 | < 4.30
Cc1cc(Nc2cc(-c3ccccc3)[nH]n2)n2nc(SCCCc3ccccc3)nc2n1 | 4.40 | 5.19 | 5.41 | 5.30
Cc1cc(Nc2cc(-c3ccccc3)[nH]n2)n2nc(SCC3CCCCC3)nc2n1 | < 4.30 | 4.90 | < 4.30 | < 4.30
COc1ccc(Cn2ccc(Nc3cc(C)nc4nc(SCc5ccc(Br)cc5)nn34)n2)cc1 | < 4.30 | 4.90 | 4.84 | < 4.30
Cc1cc(Nc2cc(-c3ccccc3)[nH]n2)n2nc(SCc3ccc(F)cc3)nc2n1 | 4.45 | 5.49 | 5.40 | 5.09
Cc1cc(Nc2cc(-c3ccccc3)[nH]n2)n2nc(SCC(=O)c3ccccc3)nc2n1 | 4.48 | 5.59 | 5.28 | 5.35
Cc1ccc(Cn2ccc(Nc3cc(C)nc4nc(SCc5ccc(Br)cc5)nn34)n2)cc1 | < 4.30 | 5.13 | 4.95 | < 4.30
Cc1cc(Nc2cc(-c3ccccc3)[nH]n2)n2nc(SCc3ccc(C(F)(F)F)cc3)nc2n1 | 4.37 | 5.45 | 5.32 | 5.37

Compound | pIC50 (GES1) | pIC50 (MGC-803) | pIC50 (MCF7) | pIC50 (PC-9)
Cc1cc(Nc2cc(-c3ccc(Cl)cc3)[nH]n2)n2nc(SCc3ccc(Br)cc3)nc2n1 | 4.55 | 5.56 | 5.44 | 5.31
Cc1cc(Nc2ccn(Cc3cccc4ccccc34)n2)n2nc(SCc3ccc(Br)cc3)nc2n1 | 4.52 | 5.49 | 5.37 | 5.25
Cc1cc(Nc2cc(-c3ccccc3)[nH]n2)n2nc(SCc3ccc(Cl)cc3)nc2n1 | 4.50 | 5.40 | 5.08 | 5.17
Cc1cc(Nc2cc(-c3ccccc3)[nH]n2)n2nc(SCCc3ccccc3)nc2n1 | 4.43 | 5.25 | 5.57 | 5.31
Cc1cc(Nc2cc(-c3ccccc3)[nH]n2)n2nc(SCc3ccccc3Br)nc2n1 | 4.39 | 5.44 | 5.52 | 5.25
Cc1cc(Nc2cc(-c3ccccc3)[nH]n2)n2nc(SCc3cc(=O)oc4c3ccc3ccccc34)nc2n1 | 4.54 | 5.68 | 5.37 | 5.47
Cc1cc(Nc2cc(-c3ccc(F)cc3)[nH]n2)n2nc(SCc3ccc(Br)cc3)nc2n1 | 4.47 | 5.66 | 5.34 | 5.21
C#CCSc1nc2nc(C)cc(Nc3cc(-c4ccccc4)[nH]n3)n2n1 | 4.34 | 4.87 | 4.66 | < 4.30
CCCSc1nc2nc(C)cc(Nc3cc(-c4ccccc4)[nH]n3)n2n1 | < 4.30 | 4.90 | < 4.30 | < 4.30
Cc1cc(Nc2ccn(Cc3csc4ccc(Cl)cc34)n2)n2nc(SCc3ccc(Br)cc3)nc2n1 | 4.50 | 5.80 | 5.59 | 5.36
Cc1cc(Nc2cc(-c3ccccc3)[nH]n2)n2nc(SCC3CC3)nc2n1 | < 4.30 | 4.79 | < 4.30 | < 4.30
Cc1cc(Nc2cc(-c3ccccc3)[nH]n2)n2nc(SCc3csc4ccccc34)nc2n1 | 4.53 | 5.64 | 5.46 | 5.35
CCCCCc1c(C)nc2nc(SCc3ccc(Cl)cc3)nn2c1Nc1cc(-c2ccccc2)[nH]n1 | < 4.30 | 5.15 | 5.19 | < 4.30
Cc1cc(Nc2ccn(Cc3ccccc3)n2)n2nc(SCc3ccc(Br)cc3)nc2n1 | 4.35 | 5.33 | 4.80 | < 4.30
O=c1[nH]cc(F)c(=O)[nH]1 [FLUOROURACIL] | 5.61 | – | 5.27 | –
Cc1nc2nc(SCc3ccc(Cl)cc3)nn2c(Nc2cc(-c3ccccc3)[nH]n2)c1C | 4.33 | 5.04 | 4.97 | < 4.30
Cc1cc(Nc2cc(-c3ccccc3)[nH]n2)n2nc(SCc3nc4ccccc4[nH]3)nc2n1 | 4.56 | 5.75 | 5.56 | 5.32
Cc1cc(Nc2cc(-c3ccccc3)[nH]n2)n2nc(SCc3cccc4ccccc34)nc2n1 | 4.44 | 5.51 | 5.12 | 5.40
